Measured values from patent US10383948B2, “Anti-cMet antibody drug conjugates and methods for their use” (AbbVie Inc., priority 2016, dated 2019).

What was measured:
[1] = tested on: NHBE (normal bronchial epithelial); experiment: Cytotoxicity assay (CellTiter-Glo, 6 days); type: cell-based; conditions: NHBE (bronchial epithelial) non-tumor; relative to untreated control at ≤1 μg/mL in a six day proliferation
Method: (§1) Tumor cells were plated at 2000-5000 cells/well in 180 μL growth medium containing 10% FBS in 96-well plates, and cultured at 37° C. in a humidified incubator with 5% C02. The following day, titrations of antibodies or ADCs in 20 μL were added and cells were incubated for 6 days. Cell viability was determined using a CellTiter-Glo Luminescent Cell Viability Assay (Promega) according to the manufacturer's instructions. A non-binding, irrelevant negative control ADC conjugated to MMAE was also included in all assays to confirm that cell killing was antigen dependent.
as §1, with “of” for “of antibodies or”, “antigen-dependent.” for “antigen dependent.”

HT-29 = experiment: Cytotoxicity assay (CellTiter-Glo, 6 days); type: cell-based, human; conditions: HT-29 colorectal cancer
Method: as §1

IM-95 = experiment: Cytotoxicity assay (CellTiter-Glo, 6 days); type: cell-based, human; conditions: IM-95 gastric cancer
Method: as §1

MCF-7 = experiment: Cytotoxicity assay (CellTiter-Glo, 6 days); type: cell-based, human; conditions: MCF-7 breast cancer; relative to untreated control at ≤1 μg/mL in a six day proliferation
Method: as §1

MDA-MB-231 = experiment: Cytotoxicity assay (CellTiter-Glo, 6 days); type: cell-based, human; conditions: MDA-MB-231 breast cancer; relative to untreated control at ≤1 μg/mL in a six day proliferation
Method: as §1

SNU-5 = experiment: Cytotoxicity assay (CellTiter-Glo, 6 days); type: cell-based, human
Method: as §1

SNU-620 = experiment: Cytotoxicity assay (CellTiter-Glo, 6 days); type: cell-based, human; conditions: SNU-620 gastric cancer
Method: as §1

[2] = tested on: HMEC (mammary epithelial); experiment: Cytotoxicity assay (CellTiter-Glo, 6 days); type: cell-based; conditions: HMEC (mammary epithelial) non-tumor; relative to untreated control at ≤1 μg/mL in a six day proliferation
Method: as §1

[3] = tested on: HUVEC (vascular endothelial); experiment: Cytotoxicity assay (CellTiter-Glo, 6 days); type: cell-based; conditions: HUVEC (vascular endothelial) non-tumor; relative to untreated control at ≤1 μg/mL in a six day proliferation
Method: as §1

[4] = tested on: NHDF (dermal fibroblasts); experiment: Cytotoxicity assay (CellTiter-Glo, 6 days); type: cell-based; conditions: NHDF (dermal fibroblasts) non-tumor; relative to untreated control at ≤1 μg/mL in a six day proliferation
Method: as §1

[5] = tested on: PrEC (prostate epithelial); experiment: Cytotoxicity assay (CellTiter-Glo, 6 days); type: cell-based; conditions: PrEC (prostate epithelial) non-tumor; relative to untreated control at ≤1 μg/mL in a six day proliferation
Method: as §1

[6] = tested on: LG1049 patient-derived xenograft; experiment: NSCLC patient-derived xenograft, Kaplan-Meier; type: in vivo, NSG mice; conditions: ABBV-399 every four days x6, ABT-700 every seven days x6, FIGS. 10A-10B
Text: Tumor fragments of 3 to 5 mm^3 at passage 3 (P3) were implanted subcutaneously in the right rear flank of NSG mice (The Jackson Laboratory) with a trochar. For all groups, tumor volumes were plotted only for the duration that allowed the full set of animal to remain on study. If animals had to be taken off study, the remaining animals were monitored for tumor growth until they reached defined end-points. Efficacy is depicted on a Kaplan-Meier plot for (A) LG0703 and (B) LG1049 models as fractions reaching the indicated tumors volumes following therapy.

[7] = tested on: NCI-H441 lung cancer xenografts; experiment: NCI-H441 xenograft efficacy; type: in vivo, mice; conditions: both every four days, six doses; dose-dependent; FIG. 11B
Text: Food and water were available ad libitum.
Each experimental group included 8-10 animals.

[8] = tested on: Hs746T ABT-700R xenografts; experiment: ABT-700-refractory xenograft efficacy; type: in vivo, mice
metastatic solid tumors = experiment: Phase 1 monotherapy, best response (RECIST 1.1); type: in vivo, human; conditions: all treated patients
Text: Three to 6 subjects will be enrolled in each cohort and dosed once every 21 (one dose per 21-day Cycle) or 14 (2 doses per 28-day Cycle) days until disease progression or unacceptable toxicity to determine the maximum tolerated dose (MTD) or maximally administered dose (MAD). Dose limiting toxicity (DLT) definitions will be used to make decisions regarding dose-escalation. […] On the dose-expansion, subjects with advanced solid tumors with cMet overexpression, MET exon 14 mutation or MET amplification will be enrolled.
Dosing began at 0.15 mg/kg and escalated to 0.3, 0.6, 1.2, 1.8, 2.4, 3.0 and 3.3 mg/kg in subsequent cohorts as tolerated. Alternative doses (intermediate or higher) or dosing schedules may be employed based on clinical safety and PK data. A dose of 2.7 mg/kg was also utilized based on the clinical safety and PK data. […] It is not administered as an intravenous push or bolus.
Baseline radiographic tumor assessments with CT (or MRI) of the head, chest, abdomen, and pelvis will be obtained no more than 28 days prior to Cycle 1 Day 1. CT scan (or MRI) will then be repeated approximately every 6 weeks after start of therapy to evaluate the extent of tumor burden. Radiographic tumor assessments will continue until disease progression documented by imaging, start of a new anti cancer therapy, death or withdrawal of consent. Response evaluation will be based on RECIST version 1.1. […]

[9] = relative to untreated control at ≤1 μg/mL in a six day proliferation
[10] = read-out: ABBV-399 IC50, cell proliferation assay, Table 7B

ABBV-399: ADC comprised of the cMet targeting antibody ABT-700 conjugated to MMAE through a valine citrulline (vc) linker
Maximal Killing [1]: 10%
Maximal Killing (HT-29; [9]): 70%
IC50 (HT-29; [10]): 9 nM
Maximal Killing (IM-95; [9]): 53%
IC50 (IM-95; [10]): 1.7 nM
Maximal Killing (MCF-7): 0%
Maximal Killing (MDA-MB-231): 0%
inhibition of proliferation (SNU-5; MET-amplified SNU-5 gastric cancer cells, FIG. 4): inhibited proliferation
Maximal Killing (SNU-5; SNU-5 gastric cancer, relative to untreated control at ≤1 μg/mL in a six day proliferation): 85%
IC50 (SNU-5; read-out: ABBV-399 IC50, SNU-5 gastric cancer, cell proliferation assay, Table 7B): 0.28 nM
Maximal Killing (SNU-620; [9]): 80%
IC50 (SNU-620; [10]): 0.17 nM
Maximal Killing [2]: 0%
Maximal Killing [3]: 6%
Maximal Killing [4]: 0%
Maximal Killing [5]: 0%
in vivo activity, comparison [6]: more active than ABT-700 alone
in vivo activity, comparison [7]: more active than ABT-700 alone
tumor response ([8]; Hs746T ABT-700R of approximately 300 mm^3): complete tumor regression
tumor response ([8]; refractory tumors at mean cohort size approximately 1,000 mm^3, followed by eventual outgrowth): tumor regression
best response: progressive disease (metastatic solid tumors; 17/40): 42.5%
best response: stable disease (metastatic solid tumors; 20/40): 50%
